US20260335278A1, “PHYTOCHEMICAL FORMULATIONS FOR TREATING STRESS AND ANXIETY” (GBS GLOBAL BIOPHARMA, INC., priority 2022, published 2026)
“Also recorded” adds a separate entry of the source.

Legend:
[1] = tested on: MAO-B; details: cited from earlier work
[2] = tested on: zebrafish larvae; assay: Baseline activity / baseline exposure (90 min continuous light), zebrafish larvae; assay type: in vivo; parameters: key to Baseline Exposure: +: statistically significant increase; −−: statistically significant decrease
Procedure: (§1) The validation process for the phytochemicals derived from Piper methysticum, other Piper plant family members, and non-Piper medicinal plants and fungi includes testing the selected phytochemical drug candidates as singles, doubles, and triples in two complementary zebrafish models of stress and anxiety. These two complementary assays are the Light/Dark Stress Response test that is illustrated in FIG. 5 (after the 90 min study of the effect of the compounds and mixtures on Baseline Activity) and the Thigmotaxis assay, as illustrated in FIG. 61A and FIG. 61B, which is also known as the wall flower effect, like the social anxiety of humans. Zebrafish larvae show a clear and distinct pattern of swimming in response to rapidly alternating light and dark conditions in the Light/Dark Response testing, which trigger a flight or fight response and darting behavior indicative of great stress and anxiety. The Light/Dark testing uses a control group to automatically track, using an automatic tracking device, the larval behavior in response to dark to light conditions. The thigmotaxis assay also uses automatic tracking and appropriate controls. In multiple embodiments additional Zebrafish larvae are given various concentrations of the selected phytochemicals from Table 1 for tracking Light/Dark Responses or Thigmotactic behavioral changes in the treated zebrafish larvae. Table 2A and Table 2B summarize the results from both assays when the individual phytochemicals are exposed to the: Baseline Activity (90 minutes in the light), Light/Dark Stress Response (5 min alternating pulses of dark and light for 30 min.), and Thigmotaxis Activity (% of time in the light center of the chamber (anxiety inducing) versus % of time near the dark (soothing) wall).
(§2) The present invention includes a process to discover new pharmaceutical medicines for the treatment of stress, anxiety and anxiety-related disorders in a human. The preclinical testing included the effects of these 14 individual phytochemicals and 300 ratio-controlled mixtures of these phytochemicals in assays measuring the behavioral stress response patterns of zebrafish larvae. Larval behavior is assessed with at least one functional assay of stress or anxiety following acute exposure to each phytochemical sample formulated. Stereotypical basal activity patterns of zebrafish will be assessed to determine the potential side effects of the phytochemical samples in a concentration dependent manner for each compound on two zebrafish models of stress and anxiety: 1) the Light/Dark Stress Response (5 min alternating pulses of light and dark) in small to med well plates (96-48 well plates), and 2) Thigmotaxis assays in large well plates with 50% of the swimming surface colored dark around the margins of the well in large (24-12 well plates) will be assessed for their efficacy in testing the phytochemicals.
(§3) The discovery methods of the present invention include testing the effects of up to 20 phytochemicals and 40 mixtures of the phytochemicals on behavioral stress response patterns of zebrafish larvae. Larval behavior was assessed with an automated video tracking system following acute exposure to each phytochemical sample. Stereotypical basal activity patterns of larvae were assessed to determine the concentration dependent effect of each compound. A zebrafish model of thigmotaxis in large well plates (24-12 well plates) was assessed for their efficacy in testing the phytochemicals. In the discovery method, fertilized eggs were kept on a re-circulating system in baskets until use at 120 hpf (5 days). At 120 hpf, larvae were loaded into 48 well plates in buffered fish media and acclimated to the plate in a heated light incubator for 2 hours. Larvae were acutely exposed with drug or controls at a 10× concentration and the plate was quickly transferred to a behavioral tracking system. Acute behavioral run was 90 minutes (baseline activity) in the light followed by alternating 5 minute bins (total 2 hours). […]

[3] = tested on: zebrafish larvae; assay: Zebrafish models of stress and anxiety, overall verdict (Light/Dark Stress Response and thigmotaxis); assay type: in vivo; details: for Anti-Anxiety Potential?: API used singly
Procedure: as §1
Additionally, testing is done with mixtures of these same selected phytochemicals from P. methysticum and other plants selected by our in silico analyses. The testing results are analyzed using artificial intelligence systems to rank effectiveness in reducing the Light/Dark response and thigmotactic behavior for the
The A1 enabled drug discovery platform database search data was evaluated to select the best drug candidates from: A Piper methysticum, B. within the Piper plant family (>200 Piper spp.), or C. traditional medicines to begin testing […] (API) singles, doubles, and triples in two complementary zebrafish models of anxiety light/dark startle response testing and thigmotaxis assays.
as §2
The discovery methods of the present invention include testing the effects of up to 20 phytochemicals and 40 mixtures of the phytochemicals on behavioral stress response patterns of zebrafish larvae. Larval behavior was assessed with an automated video tracking system following acute exposure to each phytochemical sample. […]

[4] = tested on: zebrafish larvae; assay: Light/Dark Stress Response (5 min alternating pulses of dark and light for 30 min); assay type: in vivo; parameters: key to Light/Dark Stress Response: +: statistically significant increase; −−: statistically significant decrease
Procedure: as §1, §2, §3

[5] = tested on: MAO-A; details: cited from earlier work
[6] = tested on: zebrafish larvae; assay: Thigmotaxis assay; assay type: in vivo; parameters: key: +: statistically significant increase; −−: statistically significant decrease
Procedure: as §1, §2, §3

## COC1=CC(=O)O[C@@H](CCc2ccccc2)C1 [(S)-(+)-7,8-dihydrokavain]
[1]
  Approx. Dose (cell or animal experiments), MAO-B: MAO-B 8.23 μM
[2]; High
  Baseline Exposure: −−
[2]; Low
  Baseline Exposure: +
[2]; Med
  Baseline Exposure: −−
[2]; vehicle 0.5% MeOH
  baseline Activity (90 min light): baseline activity is close to controls; also recorded: (slight increase initially)
[2]; vehicle 1% MeOH
  baseline Activity (90 min light): baseline activity levels reduced; also recorded: (evidence of sedation)
[3]
  Anti-Anxiety Potential?: Yes
[3]; vehicle 0.5% MeOH
  Therapeutic Potential: No
[3]; vehicle 1% MeOH
  Therapeutic Potential: No
[4]; vehicle 0.5% MeOH
  Light/Dark Stress Response (5 min light/dark pulses): no reduction in stress response
[4]; vehicle 1% MeOH
  Light/Dark Stress Response (5 min light/dark pulses): stress response trending down, but high
[5]
  Approx. Dose (cell or animal experiments), MAO-A: MAO-A none,

## CCCCCCCCCCCCCCCC(=O)NCCO [N-palmitoyl ethanolamide (PEA), N-palmitoyl ethanolamide]
[2]; Med
  Baseline Exposure: +
[2]; vehicle not given
  baseline Activity (90 min light): baseline activity not like controls; also recorded: (increased at all concentrations)
[3]
  Anti-Anxiety Potential?: No
[3]; vehicle not given
  Therapeutic Potential: No
[4]; High
  Light/Dark Stress Response: +
[4]; Med
  Light/Dark Stress Response: +
[4]; vehicle not given
  Light/Dark Stress Response (5 min light/dark pulses): stress response sometimes increased

## COC1=CC(=O)O[C@@H](/C=C/c2ccc3c(c2)OCO3)C1 [R-(+)-methysticin]
[1]
  Approx. Dose (cell or animal experiments), MAO-B: MAO-B 0.5 μM
[2]; High
  Baseline Exposure: −−
[2]; Low
  Baseline Exposure: +
[2]; vehicle 0.5% MeOH
  baseline Activity (90 min light): baseline activity levels reduced; also recorded: (evidence of sedation)
[2]; vehicle 1% MeOH
  baseline Activity (90 min light): baseline activity levels reduced; also recorded: (evidence of sedation)
[3]
  Anti-Anxiety Potential?: No
[3]; vehicle 0.5% MeOH
  Therapeutic Potential: No
[3]; vehicle 1% MeOH
  Therapeutic Potential: No, sedative effect
[4]; vehicle 0.5% MeOH
  Light/Dark Stress Response (5 min light/dark pulses): no reduction in stress response
[4]; vehicle 1% MeOH
  Light/Dark Stress Response (5 min light/dark pulses): stress response is reduced, but high
[5]
  Approx. Dose (cell or animal experiments), MAO-A: MAO-A 8.12 μM,

## COc1c(O)cc(O)c2c(=O)cc(-c3ccccc3)oc12 [Wogonin (hydrate), wogonin]
[2]; High
  Baseline Exposure: +
[2]; Med
  Baseline Exposure: +
[2]; vehicle 1% MeOH
  baseline Activity (90 min light): baseline activity not like controls; also recorded: (increased at med/high
[3]
  Anti-Anxiety Potential?: No
[3]; vehicle 1% MeOH
  Therapeutic Potential: No
[4]; vehicle 1% MeOH
  Light/Dark Stress Response (5 min light/dark pulses): no reduction in stress response

## O=c1cc(-c2ccccc2)oc2cc(O)c(O)c(O)c12 [bacalein]
[2]; High
  Baseline Exposure: −−
[2]; Med
  Baseline Exposure: +
[2]; vehicle 1% MeOH
  baseline Activity (90 min light): baseline activity not like controls; also recorded: (increased at low concentrations,; also recorded: sedating at higher concentrations)
[3]
  Anti-Anxiety Potential?: Yes
[4]; High
  Light/Dark Stress Response: −−
[4]; Med
  Light/Dark Stress Response: −−
[4]; vehicle 1% MeOH
  Light/Dark Stress Response (5 min light/dark pulses): stress response is reduced, but sedation

## C=C1CC/C=C(\C)CC[C@@H]2[C@@H]1CC2(C)C [beta caryophyllene]
[2]; High
  Baseline Exposure: +
[2]; Low
  Baseline Exposure: +
[2]; Med
  Baseline Exposure: +
[2]; vehicle 1% MeOH
  baseline Activity (90 min light): baseline activity not like controls; also recorded: (increased at all concentrations); also recorded: conc., but baseline activity is concerning
[3]
  Anti-Anxiety Potential?: No
[3]; vehicle 1% MeOH
  Therapeutic Potential: No
[4]; High
  Light/Dark Stress Response: −−
[4]; Low
  Light/Dark Stress Response: +
[4]; vehicle 1% MeOH
  Light/Dark Stress Response (5 min light/dark pulses): stress response reduced in highest

## C=C(C)[C@@H]1CCC(C)=C[C@H]1c1c(O)cc(CCCCC)cc1O [cannabidiol (CBD), cannabidiol, reference compound]
[6]; High
  Thigmotaxis Model: −−
[2]; High
  Baseline Exposure: −−
[2]; Low
  Baseline Exposure: +
[2]; Med
  Baseline Exposure: −−
[2]; vehicle 1% MeOH
  baseline Activity (90 min light): baseline activity not like controls; also recorded: (increased at low concentrations,; also recorded: sedating at higher concentrations)
[3]
  Anti-Anxiety Potential?: Yes
[4]; High
  Light/Dark Stress Response: −−
[4]; Low
  Light/Dark Stress Response: +
[4]; Med
  Light/Dark Stress Response: −−
[4]; vehicle 1% MeOH
  Light/Dark Stress Response (5 min light/dark pulses): stress response is reduced

## COc1cc(/C=C/C(=O)CC(=O)/C=C/c2ccc(O)c(OC)c2)ccc1O [curcumin]
[1]
  Approx. Dose (cell or animal experiments), MAO-B: 2.55 µM
[2]; High
  Baseline Exposure: +
[2]; Med
  Baseline Exposure: +
[2]; vehicle 1% MeOH
  baseline Activity (90 min light): baseline activity not like controls; also recorded: (increased at med/high; also recorded: conc., but baseline activity is concerning
[3]
  Anti-Anxiety Potential?: No
[3]; vehicle 1% MeOH
  Therapeutic Potential: No, sedative effect
[4]; High
  Light/Dark Stress Response: −−
[4]; vehicle 1% MeOH
  Light/Dark Stress Response (5 min light/dark pulses): stress response reduced in highest
[5]
  Approx. Dose (cell or animal experiments), MAO-A: MAOA 9.01 μM, MAOB

## C=CCc1ccc(OC)cc1 [methyl chavicol (4-allylanisole), 4-allylanisole]
[2]; High
  Baseline Exposure: −−
[2]; Med
  Baseline Exposure: −−
[2]; vehicle 1% MeOH
  baseline Activity (90 min light): baseline activity not like controls; also recorded: (decreased at high concentrations)
[3]
  Anti-Anxiety Potential?: No
[3]; vehicle 1% MeOH
  Therapeutic Potential: No
[4]; High
  Light/Dark Stress Response: +
[4]; vehicle 1% MeOH
  Light/Dark Stress Response (5 min light/dark pulses): no reduction in stress response, some

## COc1cc(/C=C/C(=O)N2CCC=CC2=O)cc(OC)c1OC [piperlongumine]
[6]; High
  Thigmotaxis Model: −−
[6]; Med
  Thigmotaxis Model: −−
[2]; Med
  Baseline Exposure: +
[2]; vehicle 1% MeOH
  baseline Activity (90 min light): baseline activity not like controls; also recorded: (increased at low concentrations,; also recorded: sedating at higher concentrations)
[3]
  Anti-Anxiety Potential?: Yes
[4]; High
  Light/Dark Stress Response: −−
[4]; Low
  Light/Dark Stress Response: +
[4]; vehicle 1% MeOH
  Light/Dark Stress Response (5 min light/dark pulses): stress response is reduced

## farnesene
[2]; High
  Baseline Exposure: +
[2]; Med
  Baseline Exposure: +
[3]
  Anti-Anxiety Potential?: Yes
[3]; vehicle 1% MeOH
  Therapeutic Potential: No
[4]; High
  Light/Dark Stress Response: −−
[4]; vehicle 1% MeOH
  Light/Dark Stress Response (5 min light/dark pulses): no reduction in stress response
